Experiments:
[1] = test system: GFP-RAD52 foci in PE01 C4-2 cells; experiment: Radiation-induced GFP-RAD52 foci formation; type: cell-based, human; settings: 3 nM pre-treatment, 15 Gy X-ray
Procedure: (§1) Cells without mitoxantrone and radiation (labeled C) were controls. The average percent of cells with foci (more than 5 foci per cell) are graphed from three independent experiments. More than 30 cells per experiment were analyzed. Error bars represent standard deviation.
(§2) Each cell line was seeded on a coverslip at 10^5 cells per well in a 24-well plate. After the 24 hour incubation, the cells were pre-incubated with mitoxantrone for 2 hours, then irradiated with X-ray at 15 Gy with the RS-2000 Irradiator. After 2~ 8 hours of the irradiation, the cells were fixed in 10% formaldehyde solution at room temperature for 30 min, followed by 10 min incubation in PBS containing 0.5% Triton X-100. After staining with 1 μg/ml H1399 Hoechst dye solution, each coverslip was mounted on a slide. GFP proteins were detected with a Zeiss 710 Confocal Laser Scanning Microscope, and images were processed using Zeiss ZEN software. A cell contained more than 5 foci was considered as positive.

[2] = test system: BRCA1-deficient HCC1937 breast cancer cells (empty vector, BRCA1-); experiment: Cell viability assay (PrestoBlue, 72 h), HCC1937 with empty vector; type: cell-based; settings: Homo sapiens, estimated from the graphs
Procedure: Fig 2 BRCA1-deficient HCC1937 breast cancer cell line survival assay. BRCA1-deficient HCC1937 cells corrected with wild-type BRCA1 gene (BRCA1+; closed triangle), and with an empty vector (BRCA1-; closed circle) were examined. For each experiment (Figs 2–4), cell lines were treated with nine concentrations of (A) quinacrine, (B) mitoxantrone, and (C) doxorubicin in 96-well culture plates at 5x10^3 cell/well density. Each treatment point was made in sextuplicate. Treated cells were incubated for 72 hours at 37°C before assessing cell viability using PrestoBlue. Data were normalized to vehicle control. The experiment was repeated three times. Error bars indicate the standard deviation.
The HCC1937 cell line (a gift from Dr. Simon Powell Memorial Sloan Kettering (MSK), New York) was derived from a mammary gland primary ductal carcinoma at the early onset of a tumor. This TNBC patient carried a germline mutation in BRCA1, resulting in carboxy-terminal truncated protein and loss of the second BRCA1 allele. BRCA1-restored and empty vector cell lines were also obtained by transfection of a vector containing a full-length human BRCA1 cDNA or an empty vector, respectively. The HCC1937 cell lines were cultured as described.
Cells were seeded 5 x 10^3 cells per well in 96-well plates in a 90 μL volume per well one day before treatment. Cells in 96-well plates were incubated with increasing concentrations of the compound or vehicle control (1% DMSO) for 72 hours. Each treatment plate contained nine concentrations of a compound in sextuplicate. Growth inhibition was determined using PrestoBlue reagent (Life Technologies, #A13261). Fluorescent measurements were taken using a Spectramax M5 plate reader (MDS). To assess cells’ replication in the absence of compounds as a control, six wells on each plate were treated with vehicle to be read in triplicate at the initial treatment day (T0) and at 72-hour read (T100).

[3] = test system: T1, RPA:RAD52 PPI in U2OS cells; experiment: Size exclusion chromatography and co-immunoprecipitation of RAD52 with RPA from treated cells; type: cell-based; settings: 3 nM, 24 hours, preliminary experiments
T1 construct: endogenous in cells; host or cells: U2OS
Procedure: (A) RAD52 was co-immunoprecipitated with RPA in the fractions 5, 8, and 10 in the control experiment. The elution positions of the molecular weight standards, thyroglobulin (669 kDa), apoferritin (443 kDa), beta-amylase (200 kDa), and bovine serum albumin (66 kDa), are indicated below the western blot.
U2OS cells (10^6 cells) were seeded in a 100 mm dish and grown overnight. The cells were treated with the indicated concentrations of mitoxantrone (MTX) for 24 hours. The cell lysate was prepared in 100 μl of lysis buffer (PBS with 0.5% NP40, 0.5% Triton X100, 1 mM DTT, protease and phosphatase inhibitors, and 10% glycerol). After mixing with 100 μl cold PBS, the lysate was incubated with 100 μl of DEAE sepharose (GE Life Sciences) for 2 hours at 4°C with rotation. An unbound fraction from DEAE sepharose (~200 μl) was diluted with 200 μl of PBS and half of the mixture was fractionated with Superdex200 (GE Life Sciences) using PBS as elution buffer. Each fraction was incubated with anti-RPA (p32) antibody conjugated with biotin (NeoMarkers, MS-691-B0) at 4°C overnight, then incubated with Streptavidin-magnetic beads (Promega #Z5481) for one hour at 4°C with rotation. […] RAD52 and RPA (p32) were detected by western blotting with anti-RAD52 antibody (LS-C42570, LSBio) and anti-RPA2 antibody (A300-244A, Bethyl Laboratories), respectively.

[4] = test system: BRCA2-revertant PE01 C4-2 cells (BRCA2+); experiment: Cell viability assay (PrestoBlue, 72 h), PE01 C4-2; settings: Homo sapiens, C4-2, 72 h, read-out: EC50, cell viability
[5] = test system: GFP-RAD51 foci in PE01 C4-2 cells; experiment: Radiation-induced GFP-RAD51 foci formation; type: cell-based, human; settings: 3 nM pre-treatment, 15 Gy X-ray
Procedure: as §1, §2

γH2AX (DNA damage) = experiment: Simple Western of γH2AX (DNA damage) after treatment; type: cell-based, human; settings: 72 h at doses near EC50
Procedure: Fig 6 The effect of mitoxantrone treatment on RAD52 levels and DNA damage. […] Data and ANOVA statistical analyses are described in the material and methods section. Significance statistics are shown with single, double, or triple asterisks representing P<0.05, P<0.005, or P<0.0005, respectively.
For western analysis, each cell line was grown and treated as described above. Protein levels were measured in lysates by size separation with a ProteinSimple PeggySue instrument following the manufacturer’s recommendations. Lysates were prepared using the NanoPro Cell Lysis Kit with Bicine/CHAPS (ProteinSimple CBS403) at 0.75 mg/mL concentration when mixed with master mix (containing SDS, DTT and fluorescent molecular weight markers; ProteinSimple PS-FL01-8) and heated for 5 min at 95°C. Electrophoretic nanocapillary size separation of proteins was performed using default settings. After separation, UV light cross-linked proteins to the capillary wall. Capillaries were then washed and incubated with primary antibodies, washed, and incubated with anti-rabbit secondary antibody conjugated with HRP (ProteinSimple DM-001). Finally, luminol and peroxide were applied to generate chemoluminescence which was imaged by a CCD camera. Primary antibody concentrations were optimized and were diluted as follows: Abcam anti-RAD52 antibody (ab18263, diluted 1:25), R&D Systems Human Phospho-histone H2AX (S139) antibody (AF2288, diluted 1:100), and Cell Signalling Technology Pan-Actin antibody (#4968, diluted 1:2500).
The Simple western data were processed and analyzed with ProteinSimple Compass software. Peak areas were calculated using dropped lines. Each lysate was analyzed for RAD52 and γH2AX levels three times and for Actin two times (see S2 Fig). Replicate peak areas for RAD52 and γH2AX were averaged, divided by the average Actin peak area of that sample, multiplied by 100 and graphed using SigmaPlot 7.0.

Structure (SMILES): O=C1c2c(O)ccc(O)c2C(=O)c2c(NCCNCCO)ccc(NCCNCCO)c21 [Mitoxantrone, mitoxantrone]
- Effect on radiation-induced RAD52 foci formation [1]: inhibited the radiation-induced RAD52 foci formation
- EC50 [2]: 800 nM
- Effect on RPA:RAD52 PPI in cells (co-immunoprecipitation of RAD52 with RPA) [3]: disrupts the RPA:RAD52 PPI in cells
- EC50 [4]: 400 nM
- Effect on radiation-induced RAD51 foci formation [5]: did not suppress the radiation-induced RAD51 foci formation
- DNA damage (γH2AX) from treatment (γH2AX (DNA damage); HCC1937 cell lines): low to negligible levels of DNA damage
- DNA damage (γH2AX) from treatment (γH2AX (DNA damage); PE01 cells): substantial increase in DNA damage
- DNA damage (γH2AX) from treatment (γH2AX (DNA damage); UWB1 cell lines): low to negligible levels of DNA damage
